These are literature values, as cited in patent publication US20050037366A1, “Individual drug safety” (priority 2003, published 2005).

For series [1] the following is noted: men with hormone-refractory prostate cancer.
The conditions of series [2]: rats.
The test system of series [3] is Bsep (ABCB 11).
The target of series [4] is T1, ABCC2 (MRP2, cMOAT) (Rattus norvegicus, UniProt Q63120).
T1 construct: host or cells: rats (in vivo, liver canalicular membrane)
The note with it: rats; ABCC2-mediated mechanisms.

The conditions of series [5]: in vivo.

Structures are written as SMILES. Entries after “also recorded” stand apart in the source; their conditions may differ.

T1 sequence (Q63120 whole entry): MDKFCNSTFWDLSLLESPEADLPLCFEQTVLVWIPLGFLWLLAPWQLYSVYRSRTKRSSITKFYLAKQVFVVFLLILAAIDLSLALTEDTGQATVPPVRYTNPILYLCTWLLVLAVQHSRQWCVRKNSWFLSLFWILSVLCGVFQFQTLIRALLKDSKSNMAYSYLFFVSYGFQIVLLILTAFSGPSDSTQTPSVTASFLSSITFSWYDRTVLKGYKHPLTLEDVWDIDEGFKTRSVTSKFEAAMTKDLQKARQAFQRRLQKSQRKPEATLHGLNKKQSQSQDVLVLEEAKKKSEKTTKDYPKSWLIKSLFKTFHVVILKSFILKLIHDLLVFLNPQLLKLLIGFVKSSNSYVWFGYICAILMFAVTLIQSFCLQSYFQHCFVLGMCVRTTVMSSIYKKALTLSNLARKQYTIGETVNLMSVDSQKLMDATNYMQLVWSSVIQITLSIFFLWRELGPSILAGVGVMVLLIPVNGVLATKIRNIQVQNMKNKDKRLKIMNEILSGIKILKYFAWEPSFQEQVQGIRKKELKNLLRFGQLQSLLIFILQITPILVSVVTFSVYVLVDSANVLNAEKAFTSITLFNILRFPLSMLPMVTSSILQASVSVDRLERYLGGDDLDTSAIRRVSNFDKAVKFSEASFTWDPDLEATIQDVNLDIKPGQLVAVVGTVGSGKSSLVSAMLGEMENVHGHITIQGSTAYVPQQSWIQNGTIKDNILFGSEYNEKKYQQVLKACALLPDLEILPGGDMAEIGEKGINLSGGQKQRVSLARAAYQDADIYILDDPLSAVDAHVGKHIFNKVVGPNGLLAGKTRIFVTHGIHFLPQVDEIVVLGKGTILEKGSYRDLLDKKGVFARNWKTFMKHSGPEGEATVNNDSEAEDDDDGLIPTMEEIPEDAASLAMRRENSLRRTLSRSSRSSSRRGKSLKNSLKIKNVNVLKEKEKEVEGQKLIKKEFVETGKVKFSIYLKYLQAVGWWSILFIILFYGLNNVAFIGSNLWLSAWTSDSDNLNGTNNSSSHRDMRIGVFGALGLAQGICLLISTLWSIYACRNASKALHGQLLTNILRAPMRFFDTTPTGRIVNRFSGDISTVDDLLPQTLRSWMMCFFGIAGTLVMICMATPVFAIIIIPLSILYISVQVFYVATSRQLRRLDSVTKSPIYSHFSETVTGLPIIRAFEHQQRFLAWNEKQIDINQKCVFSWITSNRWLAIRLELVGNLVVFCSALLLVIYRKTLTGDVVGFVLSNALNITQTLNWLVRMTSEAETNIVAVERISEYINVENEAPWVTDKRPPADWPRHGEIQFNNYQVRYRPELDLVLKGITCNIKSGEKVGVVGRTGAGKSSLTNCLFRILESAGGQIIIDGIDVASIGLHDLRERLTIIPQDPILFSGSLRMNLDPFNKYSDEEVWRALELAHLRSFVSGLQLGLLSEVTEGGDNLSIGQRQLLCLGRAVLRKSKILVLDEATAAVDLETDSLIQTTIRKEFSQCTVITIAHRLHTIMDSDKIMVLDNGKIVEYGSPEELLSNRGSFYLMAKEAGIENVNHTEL

As to `CCCCN(CCCC)C(=O)CN1C[C@H](c2ccc3c(c2)OCO3)[C@@H](C(=O)O)[C@@H]1c1ccc(OC)cc1` [Atrasentan], the “ADRs in phase II study” value in series [1] is “headache, peripheral edema and rhinitis”.
For the compound `CCCC[C@@H](NC(=O)[C@@H](Cc1cn(C(=O)OC)c2ccccc12)NC(=O)[C@H](CC(C)(C)C)NC(=O)N1[C@H](C)CCC[C@@H]1C)C(=O)O` [BQ-788], in series [2], the cerebral blood flow result is given as “decrease of cerebral blood flow”.
Consider `COc1ccccc1Oc1c(NS(=O)(=O)c2ccc(C(C)(C)C)cc2)nc(-c2ncccn2)nc1OCCO` [Bosentan], for which the “effect on Bsep-mediated canalicular bile salt transport” value in series [3] is reported as “inhibition of Bsep-mediated canalicular bile salt transport”. Further, the canalicular bile formation entry in series [4] is reported as “alters canalicular bile formation”. Moreover, the “ADR: liver injury” value in series [5] was “can lead to liver injury; also recorded: can induce cholestatic liver injury”.
